Consider 13 molecules from PubChem BioAssay (NCI).

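A five-concentration, 48-hour dose response in 96-well plates underlies each endpoint, interpolated linearly between surrounding concentrations. TGI: concentration producing complete growth inhibition.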

Among the test systems are HOP-92 NSCLC; DU-145 prostate; PC-3 prostate; HCT-116 colon; SK-MEL-28 melanoma; A549 NSCLC; SNB-75 CNS; MALME-3M melanoma; SK-MEL-2 melanoma; HOP-62 NSCLC.
Test in all cases: NCI tumour cell line growth inhibition, 48 h

For the molecule `COc1ccc2c(c1)c(=O)c1c(NCCCN(C)CCCNc3ccc4c(=O)n(CCN(C)C)c(=O)n5c6ccc(OC)cc6c(=O)c3c45)ccc3c(=O)n(CCN(C)C)c(=O)n2c31`, the TGI in the assay with HOP-92 NSCLC worked out at 0.941 µM; in the assay with DU-145 prostate, 1.18 µM; in the assay with PC-3 prostate, 0.858 µM; in the assay with HCT-116 colon, 1.13 µM; with SK-MEL-28 melanoma it was 2.32 µM; in the assay with A549 NSCLC, 1.26 µM. The TGI in the assay on SNB-75 CNS turned out to be 0.216 µM; in the assay on MALME-3M melanoma, 2.42 µM; in the assay with SK-MEL-2 melanoma, 2.44 µM; with HOP-62 NSCLC it was 1.04 µM.
Consider `CC1(CCc2ccccc2)CC1(Br)Br` (centres undefined), for which the TGI with HOP-92 NSCLC was 60.2 µM; in the assay on DU-145 prostate, over 100 µM; with PC-3 prostate, over 100 µM; with HCT-116 colon, over 100 µM; in the assay on SK-MEL-28 melanoma, over 100 µM; in the assay with A549 NSCLC it was over 100 µM. The TGI is over 100 µM in the assay on SNB-75 CNS, 68.3 µM with MALME-3M melanoma, 36.1 µM in the assay with SK-MEL-2 melanoma and over 100 µM in the assay on HOP-62 NSCLC.
For the molecule `COC(=O)c1ccc(CCC2=CC(=O)C(Br)=CC2=O)cc1`, the TGI is 11.9 µM in the assay with HOP-92 NSCLC; 32 µM with DU-145 prostate; 30.9 µM with PC-3 prostate; 30.3 µM in the assay on HCT-116 colon; 31.1 µM with SK-MEL-28 melanoma; 36.9 µM in the assay with A549 NSCLC. Also, the TGI in the assay with SNB-75 CNS worked out at 26.9 µM; in the assay with MALME-3M melanoma, 30.6 µM; in the assay with SK-MEL-2 melanoma, 31.9 µM; with HOP-62 NSCLC, 31.6 µM.
For the molecule `Cc1c(C#N)c2nnn(-c3ccc([N+](=O)[O-])cc3)c(=O)n2c1-c1ccccc1`, the TGI in the assay on HOP-92 NSCLC was 31.4 µM; in the assay with DU-145 prostate, 26.1 µM; with PC-3 prostate, 14.7 µM; with HCT-116 colon, 19 µM; in the assay with SK-MEL-28 melanoma, 79.7 µM; in the assay on A549 NSCLC, over 100 µM. Moreover, the TGI with SNB-75 CNS turned out to be 39.7 µM; in the assay with MALME-3M melanoma it was 30.7 µM; with SK-MEL-2 melanoma, 22 µM; in the assay with HOP-62 NSCLC it was 19.8 µM.
`COc1cc(CCNC2=CC(=O)c3cccnc3C2=O)ccc1O`: the TGI in the assay on HOP-92 NSCLC turned out to be 19 µM; in the assay with DU-145 prostate, 3.11 µM; in the assay with PC-3 prostate, 18.7 µM; in the assay with HCT-116 colon, 4.8 µM; in the assay on SK-MEL-28 melanoma, 2.56 µM; with A549 NSCLC, 3.27 µM. In addition, the TGI with SNB-75 CNS is 2.06 µM; in the assay with MALME-3M melanoma, 2.32 µM; with SK-MEL-2 melanoma it was 3.46 µM; in the assay on HOP-62 NSCLC, 2.86 µM.
Regarding `NNC(=O)Cc1cccnc1`, the TGI in the assay on HOP-92 NSCLC, in the assay on DU-145 prostate, in the assay on PC-3 prostate, with HCT-116 colon, in the assay on SK-MEL-28 melanoma and in the assay with A549 NSCLC was over 100 µM each time. Moreover, the TGI in the assay with SNB-75 CNS, with MALME-3M melanoma, in the assay on SK-MEL-2 melanoma and in the assay on HOP-62 NSCLC was over 100 µM each time.
Take `O=C(CCCC1Cc2ccccc2C1=O)c1ccccc1` (centres undefined): the TGI in the assay on HOP-92 NSCLC, in the assay on DU-145 prostate, with PC-3 prostate, in the assay on HCT-116 colon, in the assay on SK-MEL-28 melanoma and in the assay with A549 NSCLC was over 100 µM throughout. In addition, the TGI in the assay with SNB-75 CNS, in the assay on MALME-3M melanoma, in the assay on SK-MEL-2 melanoma and in the assay on HOP-62 NSCLC was over 100 µM in each case.
Regarding `NC(Cc1ccccc1)=NCC(=O)O`, the TGI in the assay on HOP-92 NSCLC, with DU-145 prostate, in the assay with PC-3 prostate, in the assay with HCT-116 colon, with SK-MEL-28 melanoma and in the assay on A549 NSCLC was over 100 µM in each case. Besides, the TGI with SNB-75 CNS, with MALME-3M melanoma, in the assay with SK-MEL-2 melanoma and with HOP-62 NSCLC was over 100 µM each time.
In the case of `OCCN1CN(c2nc(N3CN(CCO)C3)nc(N3CN(CCO)C3)n2)C1`, the TGI was 53 µM in the assay with HOP-92 NSCLC; 54.7 µM with DU-145 prostate; 49.8 µM with PC-3 prostate; 42 µM in the assay on HCT-116 colon; 37.3 µM with SK-MEL-28 melanoma; over 100 µM in the assay with A549 NSCLC. For the same molecule, the TGI in the assay on SNB-75 CNS was found to be 57 µM; in the assay with MALME-3M melanoma it was 39.3 µM; in the assay with SK-MEL-2 melanoma, 41.9 µM; in the assay with HOP-62 NSCLC, 39.2 µM.
Turning to `N#Cc1ccc(OC(=O)c2ccc(N=C(N)N)cc2)cc1`, the TGI in the assay with HOP-92 NSCLC, in the assay with DU-145 prostate, with PC-3 prostate, in the assay with HCT-116 colon, in the assay with SK-MEL-28 melanoma and with A549 NSCLC was over 100 µM each time. Further, the TGI in the assay on SNB-75 CNS, in the assay on MALME-3M melanoma, in the assay with SK-MEL-2 melanoma and in the assay with HOP-62 NSCLC was over 100 µM each time.
As to `Cc1c(C)c2c(c(N)c1C#N)C(=O)N(OS(=O)(=O)c1ccccc1)C2=O`, the TGI in the assay with HOP-92 NSCLC is 35.2 µM; in the assay with DU-145 prostate, 64.3 µM; with PC-3 prostate, over 100 µM; with HCT-116 colon, 68.1 µM; in the assay on SK-MEL-28 melanoma, 67.3 µM; with A549 NSCLC, 32.1 µM. The TGI with SNB-75 CNS is over 100 µM; in the assay with MALME-3M melanoma it was 31.8 µM; in the assay on SK-MEL-2 melanoma, over 100 µM.
Consider `CC(=O)OC(CC(C)C)P1(=O)N(CC(C)(C)C)[C@@H]2CCCC[C@H]2N1CC(C)(C)C` (some centres undefined), for which the TGI in the assay on HOP-92 NSCLC was found to be 10.7 µM; in the assay with DU-145 prostate, 29.4 µM; in the assay with PC-3 prostate it was 13.6 µM; in the assay on HCT-116 colon, 16.2 µM; in the assay on SK-MEL-28 melanoma it was 28.6 µM; in the assay with A549 NSCLC, 18 µM. For the same molecule, the TGI in the assay with SNB-75 CNS worked out at 20.6 µM; in the assay on MALME-3M melanoma, 22.8 µM; in the assay on SK-MEL-2 melanoma it was 19.6 µM; with HOP-62 NSCLC it was 29.9 µM.
Regarding `O=C1c2cc([N+](=O)[O-])cnc2S(=O)(=O)N1c1ccc(Br)cc1`, the TGI in the assay on HOP-92 NSCLC, in the assay with DU-145 prostate, in the assay on PC-3 prostate, in the assay with HCT-116 colon, in the assay with SK-MEL-28 melanoma and in the assay with A549 NSCLC was over 100 µM in each case. Also, the TGI in the assay with SNB-75 CNS, with MALME-3M melanoma, in the assay on SK-MEL-2 melanoma and with HOP-62 NSCLC was over 100 µM each time.
